One series has as its system Mus musculus. Briefly: Toxicity in nude BALB/c mouse xenografted with human MDA-MB-231 cells assessed as change in body weight at 50 mg/kg, po containing 1:1 compound : JQ-1 ratio administered once daily for 19 days and measured every 3 days. Conditions: in vivo, 456 h, time 19 day. In kind it is organism-based.
Series [1] deals with MDA-MB-231. Nature of the series: Antitumor activity against human MDA-MB-231 cells xenografted in po dosed nude BALB/c mouse assessed as tumor growth inhibition at 1:1 JQ-1 : compound ratio administered once daily for 19 days and measured every 3 days. In kind it is functional, organism-based. Conditions: dose 50.0 mg/kg, time 19.0 day. On the technique in general: Xenograft models place foreign cells or tissue in a host animal.

For series [2], the system named is MDA-MB-231. Briefly: cells. As to conditions: Homo sapiens, MDA-MB-231, 24 h.
For the next series, the system named is MDA-MB-468. Briefly: Antiproliferative activity against human MDA-MB-468 cells incubated for 24 hrs by MTT assay. The class given is functional, cell-based. Conditions: MDA-MB-468, 24 h.

Calls of active or inactive are those of the source. The rule behind the calls is not given here.

`O=C(O)c1ccc2c(c1)nc(Nc1cccc(Cl)c1)c1ccncc12` [SILMITASERTIB]: the Activity entry with Mus musculus is listed as “Toxic”. Besides, the result with MDA-MB-231 [1] was Active.
In the case of `COc1cc(OC)c2c(=O)[nH]c(-c3ccc(OCC(=O)Nc4ccccc4N4CCN(C)CC4)cc3)nc2c1`, the IC50 (commonly the concentration at which inhibition is half-maximal) in the series with MDA-MB-231 [2] was determined as 17.3 µM; in the series with MDA-MB-468, 11.5 µM.

Values taken from ChEMBL document CHEMBL5053557, “Discovery of Novel Dual-Target Inhibitor of Bromodomain-Containing Protein 4/Casein Kinase 2 Inducing Apoptosis and Autophagy-Associated Cell Death for Triple-Negative Breast Cancer Therapy” (J Med Chem, 2021).
